US20040058957A1, “Benzothiophene derivatives and herbicidal compositions containing the same” (priority 2000, published 2004)

What was measured:
Assay type in all cases: in vivo
Settings in all cases: rated 30 days after application
Scirpus juncoides [1] = assay: Submersion test, treatment 3 days after transplantation: herbicidal effect
Protocol: (§1) A mixture consisting of 57 parts by weight of talc and 40 parts by weight of bentonite as carrier and 3 parts by weight of sodium alkylbenzenesulfonate as surfactant was pulverized and mixed uniformly to obtain a carrier for wettable powder. Each herbicidal composition was prepared by uniformly pulverizing and mixing 90 parts by weight of the carrier for wettable powder and 10 parts by weight of the benzothiophene derivative produced in each example.
(§2) Seeds of Scirpus juncoides were sowed onto paddy field soil in a Wagner pot of 1/2000 are. Then, rice seedlings of 2.5 leaf stage were transplanted in the soil. Water was pored into the pot so as to submerge the soil at a depth of 3 cm. The pot was placed in a greenhouse maintained at 20 to 25° C. for vegetation. After 3 days from transplantation of the rice seedlings, a predetermined amount of the herbicidal composition prepared in the step [1] was applied to the pot. After 30 days from the application of the herbicidal composition, the herbicidal effect and injury to the paddy rice were determined.
(§3) The herbicidal effect and the injury to crops in the above tests (1) and (2) were evaluated based on the following ratings.
(§4) The degree of weed control (%) was calculated from the weights of the above-ground parts of fresh weeds in the treated area and the untreated area using the following equation:
(§5) Degree of weed control (%)=[1−(weight of weeds in treated area)/(weight of weeds in untreated area)]×100
(§6) The herbicidal effect was determined according to the following ratings: […]

paddy rice = assay: Submersion test, treatment 3 days after transplantation: injury to paddy rice; design: key: 0: No injury; 1: Substantially no injury; 2: Slight injury; 3: Some injury; 4: Remarkable injury; 5: Almost all crops dead
Protocol: A mixture consisting of 57 parts by weight of talc and 40 parts by weight of bentonite as carrier and 3 parts by weight of sodium alkylbenzenesulfonate as surfactant was pulverized and mixed uniformly to obtain a carrier for wettable powder. […] Then, rice seedlings of 2.5 leaf stage were transplanted in the soil. Water was pored into the pot so as to submerge the soil at a depth of 3 cm. The pot was placed in a greenhouse maintained at 20 to 25° C. for vegetation. […] After 30 days from the application of the herbicidal composition, the herbicidal effect and injury to the paddy rice were determined. […] The injury to crops was evaluated according to the following ratings: [table]

Scirpus juncoides [2] = assay: Submersion test, treatment 10 days after transplantation: herbicidal effect
Protocol: as §1
as §2, with “vegetation. After 10 days from” for “vegetation. After 3 days from”
as §3, §4, §5, §6

Structure (SMILES)	Herbicidal effect Scirpus juncoides (Scirpus juncoides [1]; application rate 100 g/ha)	Herbicidal effect Scirpus juncoides (Scirpus juncoides [1]; application rate 200 g/ha)	Injury paddy rice (paddy rice; application rate 100 g/ha)	Injury paddy rice (paddy rice; application rate 200 g/ha)	Herbicidal effect Scirpus juncoides (Scirpus juncoides [2]; application rate 100 g/ha)	Herbicidal effect Scirpus juncoides (Scirpus juncoides [2]; application rate 200 g/ha)
CO/N=C/CSC1Cc2c(ccc(C(=O)C3C(=O)CCCC3=O)c2Cl)S1(=O)=O (single isomer, unassigned) [Compound No. 8, 4-chloro-2-(2-methoxyiminoethyl)thio-5-(1,3-dioxocyclohex-2-yl)carbonyl-2,3-dihydrobenzothiophene 1,1-dioxide]	4 (70% or higher but less than 90%)	5 (90% or higher (almost completely dead))	0	0	5 (90% or higher (almost completely dead))	5 (90% or higher (almost completely dead))
C[S+]([O-])C1Cc2c(ccc(C(=O)C3=C(Cl)CCCC3=O)c2Cl)S1(=O)=O (single isomer, unassigned) [Compound No. 28, 4-chloro-2-methanesulfinyl-5-(3-chloro-1-oxo-2-cyclohexen-2-yl)carbonyl-2,3-dihydrobenzothiophene 1,1-dioxide]	5 (90% or higher (almost completely dead))	5 (90% or higher (almost completely dead))	0	0	5 (90% or higher (almost completely dead))	5 (90% or higher (almost completely dead))
CS(=O)(=O)c1ccc(C(=O)C2=C(Sc3ccccc3)C3CCC(C3)C2=O)c(Cl)c1 (stereo not drawn) [(B), reference compound]	3 (40% or higher but less than 70%)	4 (70% or higher but less than 90%)	0	0	2 (20% or higher but less than 40%)	3 (40% or higher but less than 70%)
CCSC1Cc2c(ccc(C(=O)C3C(=O)CCCC3=O)c2Cl)S1(=O)=O (stereo not drawn) [Compound No. 2, 4-chloro-2-ethylthio-5-(1,3-cdioxocyclohex-2-yl)carbonyl-2,3-cdihydrobenzothiophene 1,1-dioxide]	5 (90% or higher (almost completely dead))	5 (90% or higher (almost completely dead))	0	0	5 (90% or higher (almost completely dead))	5 (90% or higher (almost completely dead))
COCCSC1Cc2c(ccc(C(=O)C3C(=O)CCCC3=O)c2Cl)S1(=O)=O (stereo not drawn) [Compound No. 5, 4-chloro-2-(2-methoxyethyl)thio-5-(1,3-dioxocyclohex-2-yl)carbonyl-2,3-dihydrobenzothiophene 1,1-dioxide]	5 (90% or higher (almost completely dead))	5 (90% or higher (almost completely dead))	0	0	5 (90% or higher (almost completely dead))	5 (90% or higher (almost completely dead))
CS(=O)(=O)C1Cc2c(ccc(C(=O)C3C(=O)CCCC3=O)c2Cl)S1(=O)=O (stereo not drawn) [Compound No. 15, 4-chloro-2-methanesulfonyl-5-(1,3-dioxocyclohex-2-yl)carbonyl-2,3-dihydrobenzothiophene 1,1-dioxide]	5 (90% or higher (almost completely dead))	5 (90% or higher (almost completely dead))	0	0	4 (70% or higher but less than 90%)	5 (90% or higher (almost completely dead))
CSC1Cc2c(ccc(C(=O)C3=C(Cl)CCCC3=O)c2Cl)S1(=O)=O (stereo not drawn) [Compound No. 17, 4-chloro-2-methylthio-5-(3-chloro-1-oxo-2-cyclohexen-2-yl)carbonyl-2,3-dihydrobenzothiophene 1,1-dioxide]	5 (90% or higher (almost completely dead))	5 (90% or higher (almost completely dead))	0	0	5 (90% or higher (almost completely dead))	5 (90% or higher (almost completely dead))
CS(=O)(=O)C1Cc2c(ccc(C(=O)C3=C(Cl)CCCC3=O)c2Cl)S1(=O)=O (stereo not drawn) [Compound No. 18, 4-chloro-2-methanesulfonyl-5-(3-chloro-1-oxo-2-cyclohexen-2-yl)carbonyl-2,3-dihydrobenzothiophene 1,1-dioxide]	4 (70% or higher but less than 90%)	5 (90% or higher (almost completely dead))	0	0	4 (70% or higher but less than 90%)	5 (90% or higher (almost completely dead))
CCSC1Cc2c(ccc(C(=O)C3=C(Cl)CCCC3=O)c2Cl)S1(=O)=O (stereo not drawn) [Compound No. 19, 4-chloro-2-ethylthio-5-(3-chloro-1-oxo-2-cyclohexen-2-yl)carbonyl-2,3-dihydrobenzothiophene 1,1-dioxide]	5 (90% or higher (almost completely dead))	5 (90% or higher (almost completely dead))	0	0	4 (70% or higher but less than 90%)	5 (90% or higher (almost completely dead))
COCCSC1Cc2c(ccc(C(=O)C3=C(Cl)CCCC3=O)c2Cl)S1(=O)=O (stereo not drawn) [Compound No. 25, 4-chloro-2-(2-methoxyethyl)thio-5-(3-chloro-1-oxo-2-cyclohexen-2-yl)carbonyl-2,3-dihydrobenzothiophene 1,1-dioxide]	4 (70% or higher but less than 90%)	5 (90% or higher (almost completely dead))	0	0	4 (70% or higher but less than 90%)	5 (90% or higher (almost completely dead))
COC(=O)CSC1Cc2c(ccc(C(=O)C3=C(Cl)CCCC3=O)c2Cl)S1(=O)=O (stereo not drawn) [Compound No. 27, 4-chloro-2-(methoxycarbonylmethyl)thio-5-(3-chloro-1-oxo-2-cyclohexen-2-yl)carbonyl-2,3-dihydrobenzothiophene 1,1-dioxide]	4 (70% or higher but less than 90%)	5 (90% or higher (almost completely dead))	0	0	4 (70% or higher but less than 90%)	5 (90% or higher (almost completely dead))
CSC1Cc2c(ccc(C(=O)C3=C(SCCO)CCCC3=O)c2Cl)S1(=O)=O (stereo not drawn) [Compound No. 31, 4-chloro-2-methylthio-5-[3-(2-hydroxyethyl)thio-1-oxo-2-cyclohexen-2-yl]carbonyl-2,3-dihydrobenzothiophene 1,1-dioxide]	5 (90% or higher (almost completely dead))	5 (90% or higher (almost completely dead))	0	0	5 (90% or higher (almost completely dead))	5 (90% or higher (almost completely dead))
CSC1Cc2c(ccc(C(=O)C3=C(SCC(C)O)CCCC3=O)c2Cl)S1(=O)=O (stereo not drawn) [Compound No. 33, 4-chloro-2-methylthio-5-[3-(2-hydroxy-1-propyl)thio-1-oxo-2-cyclohexen-2-yl]carbonyl-2,3-dihydrobenzothiophene 1,1-dioxide]	4 (70% or higher but less than 90%)	5 (90% or higher (almost completely dead))	0	0	4 (70% or higher but less than 90%)	5 (90% or higher (almost completely dead))
